Reference: patent US20080145313A1, “Compositions and Methods for the Treatment and Prevention of Neoplastic Disorders” (Genesis Research & Development Corporation Limited, priority 2006, published 2008)

Tests used:
A549 xenograft tumor = assay: Xenograft tumor growth of A549 cells transfected with siRNA pre-implantation in CD-1 nude mice; format: in vivo, mouse
Procedure: To determine the effect of RRM1 knockdown on tumor growth, A549 cells (human lung cancer cell line; ATCC No. CCL-185) were reverse-transfected prior to implantation in CD-1 nude mice. In 175 cm^2 culture flasks, 10×10^6 A549 cells (in RPMI supplemented with 10% fetal calf serum) were added to pre-made lipoplexes. To make lipoplexes, Lipofectamine RNAiMAX in serum-free RPMI was added to an equal volume of serum-free RPMI containing siRNA (RRM1-2; SEQ ID NO: 4831 (DNA), and SEQ ID NO: 5137 (RNA)) and a control siRNA (SEQ ID NO: 4804 (DNA), and SEQ ID NO: 5301 (RNA)). After addition of cells, the final concentration of siRNA in the flask was 10 nM. Untransfected cells served as a further control. Flasks were incubated at 37° C. for 24 h to allow transfection to proceed.
The cells were harvested by trypsinization 24 h after the transfection, washed twice in PBS and viable cells were counted. Equal numbers of cells (1×10^7) were inoculated into CD-1 nude mice (n=7-9). Briefly, 5 to 7 weeks old nude mice were subcutaneously (s.c.) injected in the right flank with A549 cells in 100 μl PBS. Tumor growth was monitored 3 times per week by measuring tumor sizes using a digital caliper. Tumor volume was expressed in […] using the formula: V=a^2×b×0.52, where a and b represent the minimum and maximum tumor diameter, respectively. Mean tumor volumes calculated from each measurement were then plotted in a standard graph to compare the tumor growth of transfected cells to that of control.
To determine the effect of siRNA-mediated knockdown of HK-II, CAD, IMPDH2, RRM2, SLC16A1 and SLC29A1 on tumor growth, A549 cells (human lung cancer cell line; ATCC No. CCL-185) were reverse-transfected prior to implantation in CD-1 nude mice as described above with siRNAs given in SEQ ID NO: 5307 (DNA), and SEQ ID NO: 5304 (RNA) for RRM2, SEQ ID NO: 4932 (DNA), and SEQ ID NO: 5227 (RNA) for ENT1, SEQ ID NO: 4813 (DNA), and SEQ ID NO: 5119 (RNA) for HK-II, SEQ ID NO: 4827 (DNA), and SEQ ID NO: 5133 (RNA) for CAD, SEQ ID NO: 4879 (DNA), and SEQ ID NO: 5182 (RNA) for IMPDH2 and SEQ ID NO: 4924 (DNA), and SEQ ID NO: 5219 (RNA) for SLC16A1, respectively. The siRNA given in SEQ ID NO: 4804 (DNA), and SEQ ID NO: 5301 (RNA) was used as control.
In two separate experiments, CD-1 mice were divided into five groups that received untransfected A549 cells, cells transfected with control siRNA or three different siRNAs (as listed above), respectively. Cells were transfected in vitro using the method as described in Example 8, and 24 h after transfection, s.c. inoculated into mice. Tumor growth was measured 3 times per week. In the first experiment, mice received cells transfected with siRNA targeting RRM2, HK-II or SLC29A1 and were monitored for 33 days. In the second experiment, mice received cells transfected with siRNA targeting CAD, IMPDH2 or SLC16A1, and were monitored for 26 days. […] Similarly, preliminary data indicated tumor growth rate was reduced for the groups receiving cells transfected with siRNA targeting CAD and SLC16A1. Twenty-six days after cell inoculation, the tumor volume for mice with cells transfected with siRNA targeting CAD or SLC16A1 was 97.2±7.3 mm^3 or 110.1±28.1 mm^3, respectively.

[1] = test system: target transcript mRNA in A549 cells; assay: Level of mRNA of target transcript in A549 cells by quantitative RT-PCR (Tables 12 and 13); format: cell-based, human; conditions: 24 h post-transfection; for mRNA knockdown of transporter gene target transcript, 10 nM: 10 nM siRNA
In short: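 Target mRNA was measured by SYBR Green quantitative RT-PCR using random-primed cDNA, normalised to HPRT and Lamin. Samples came from A549 cells 24 h post-transfection with 0.1, 1.0 or 10 nM siRNA.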

Substance	average tumor size (A549 xenograft tumor; thirty-three days after the cell inoculation, preliminary data) [mm^3]	mRNA knockdown of energy and metabolism gene target transcript, 0.1 nM ([1]; 0.1 nM siRNA)	mRNA knockdown of energy and metabolism gene target transcript, 1 nM ([1]; 1 nM siRNA)	tumor growth inhibition compared to the control groups (A549 xenograft tumor; cells transfected pre-implantation, monitored 33 or 26 days)	mRNA knockdown of transporter gene target transcript, 0.1 nM ([1]; 0.1 nM siRNA)	mRNA knockdown of transporter gene target transcript, 1 nM ([1]; 1 nM siRNA)	mRNA knockdown of transporter gene target transcript, 10 nM [1]	tumor growth rate compared to control groups (A549 xenograft tumor; A549 cells transfected with siRNA before s.c. inoculation)	tumor volume (A549 xenograft tumor; twenty-six days after cell inoculation, preliminary data) [mm^3]
SEQ ID NO: 5307: Stealth siRNA targeting RRM2 (chain 1 AATTCATCCCAATGAGCTTCACAGG; chain 2 AAUUCAUCCCAAUGAGCUUCACAGG; Stealth siRNA, chemical pattern not given here; one strand in two spellings)	100.1±116.6	+ (50-70% mRNA knockdown)	++ (70-90% mRNA knockdown)						
SEQ ID NO: 4932: siRNA targeting SLC29A1 (ENT1) (chain 1 TGATAAAGTAGCCGAAGGCACTTTC; chain 2 UGAUAAAGUAGCCGAAGGCACUUUC; chemistry not given here; one strand in two spellings)				No tumor growth inhibition	++ (70-90% mRNA knockdown)	++ (70-90% mRNA knockdown)	++ (70-90% mRNA knockdown)		
SEQ ID NO: 4924: siRNA targeting SLC16A1 (MCT1) (chain 1 TTAGACTTATCTTTCCCTGCCTTGG; chain 2 UUAGACUUAUCUUUCCCUGCCUUGG; chemistry not given here; one strand in two spellings)					+ (50-70% mRNA knockdown)	++ (70-90% mRNA knockdown)	++ (70-90% mRNA knockdown)	reduced	110.1±28.1
